Tests used:
Experiment in all cases: Post-emergence efficacy, glasshouse spray test
Type in all cases: in vivo
[1] = test system: Setaia fabei (SETFA); conditions: Setaria faberi, post-emergence, 312 h; Application Rate 500 g/Ha; evaluated after 13 days; read-out: Control of weed species after post-emergence application, SETFA (100=total damage to plant; 0=no damage to plant)
How it was run: (§1)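 Post-emergence glasshouse test on 14-day-old potted plants. Rating 0–100 plant damage at 13 days after application.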

[2] = test system: Chenopodium album (CHEAL); conditions: Chenopodium album, post-emergence, 312 h; Application Rate 500 g/Ha; evaluated after 13 days; read-out: Control of weed species after post-emergence application, CHEAL (100=total damage to plant; 0=no damage to plant)
How it was run: as §1

[3] = test system: Digitaria sanguinalis (DIGSA); conditions: Digitaria sanguinalis, post-emergence, 312 h; Application Rate 500 g/Ha; evaluated after 13 days; read-out: Control of weed species after post-emergence application, DIGSA (100=total damage to plant; 0=no damage to plant)
How it was run: as §1

[4] = test system: Euphorbia heterophylla (EPHHL); conditions: Euphorbia heterophylla, post-emergence, 312 h; Application Rate 500 g/Ha; evaluated after 13 days; read-out: Control of weed species after post-emergence application, EPHHL (100=total damage to plant; 0=no damage to plant)
How it was run: as §1

[5] = test system: Ipomoea hederacea (IPOHE); conditions: Ipomoea hederacea, post-emergence, 312 h; Application Rate 500 g/Ha; evaluated after 13 days; read-out: Control of weed species after post-emergence application, IPOHE (100=total damage to plant; 0=no damage to plant)
How it was run: as §1

[6] = test system: Echinochloa crus-galli (ECHCG); conditions: Echinochloa crus-galli, post-emergence, 312 h; Application Rate 500 g/Ha; evaluated after 13 days; read-out: Control of weed species after post-emergence application, ECHCG (100=total damage to plant; 0=no damage to plant)
How it was run: as §1

[7] = test system: Lolium perenne (LOLPE); conditions: Lolium perenne, post-emergence, 312 h; Application Rate 500 g/Ha; evaluated after 13 days; read-out: Control of weed species after post-emergence application, LOLPE (100=total damage to plant; 0=no damage to plant)
How it was run: as §1

[8] = test system: Amaranthus palmeri (AMAPA); conditions: Amaranthus palmeri, post-emergence, 312 h; Application Rate 500 g/Ha; evaluated after 13 days; read-out: Control of weed species after post-emergence application, AMAPA (100=total damage to plant; 0=no damage to plant)
How it was run: as §1

[9] = test system: Eleusine indica (ELEIN); conditions: Eleusine indica, post-emergence, 312 h; Application Rate 500 g/Ha; evaluated after 13 days; read-out: Control of weed species after post-emergence application, ELEIN (100=total damage to plant; 0=no damage to plant)
How it was run: as §1

Row | SMILES | pest or weed control at 500 g/ha [1] | pest or weed control at 500 g/ha [2] | pest or weed control at 500 g/ha [3] | pest or weed control at 500 g/ha [4] | pest or weed control at 500 g/ha [5] | pest or weed control at 500 g/ha [6] | pest or weed control at 500 g/ha [7] | pest or weed control at 500 g/ha [8] | pest or weed control at 500 g/ha [9]
1 | O=C(O)c1cccc(C[n+]2ccc(-c3ncco3)cn2)c1 [Compound A104] | 60% | 20% | 50% | 30% | 10% | 50% | 10% | 40% | 20%
2 | O=S(=O)([O-])OCC[n+]1ccc(-c2nccs2)cn1 [Compound A113] | 70% | 60% | 70% | 70% | 50% | 70% | 60% | 100% | 70%
3 | O=S(=O)([O-])CCC[n+]1ccc(-c2nccs2)cn1 [Compound A116] | 60% | 40% | 60% | 70% | 20% | 60% | 80% | 100% | 80%
4 | Cn1nnnc1-c1cc[n+](CCS(=O)(=O)O)nc1 [Compound A12] | 40% | 30% | 60% | 20% | 20% | 30% | 70% | 60% | 30%
5 | O=C(O)CC[n+]1ccc(-c2ccsc2)cn1 [Compound A63] | 30% | 30% | 20% | 40% | 20% | 20% | 10% | 0% | 20%
6 | O=C(O)C[n+]1ccc(-c2nccs2)cn1 [Compound A123] | 10% | 0% | 20% | 30% | 10% | 10% | 10% | 0% | 20%
7 | Cc1coc(-c2cc[n+](CC(=O)O)nc2)n1 [Compound A132] | 80% | 70% | 90% | 70% | 10% | 90% | 50% | 90% | 90%
8 | C=C/N=C(\OC)c1cc[n+](C(C)C(=O)OC)nc1 (stereo not drawn) [Compound A93] | 40% | 0% | 50% | 10% | 20% | 30% | 10% | 0% | 30%
9 | O=C(O)CC[n+]1ccc(-c2ccoc2)cn1 [Compound A43] | 10% | 90% | 20% | 80% | 20% | 10% | 0% | 100% | 10%
10 | CC(C(=O)O)[n+]1ccc(-c2ncco2)cn1 (stereo not drawn) [Compound A90] | 10% | 20% | 10% | 20% | 10% | 10% | 0% | 20% | 10%

Source: patent publication US20210053957A1, “HERBICIDAL COMPOUNDS” (SYNGENTA PARTICIPATIONS AG, priority 2018, published 2021)
